Laboratory results from ChEMBL document CHEMBL2417377, “Hit-to-lead optimization and kinase selectivity of imidazo[1,2-a]quinoxalin-4-amine derived JNK1 inhibitors” (Bioorg Med Chem Lett, 2013).

Key:
Details in all cases: PC-3
[1] = molecular target: Tyrosine-protein kinase Yes (Homo sapiens) (UniProt P07947); experiment: Inhibition of YES in human PC3 cell lysates at 10 uM using desthiobiotin-tagged ATP probe AX9989 followed by trypsinization by LC/MS analysis
[2] = molecular target: SRSF protein kinase 2 (Homo sapiens) (UniProt P78362); experiment: Inhibition of SRPK2 in human PC3 cell lysates at 10 uM using desthiobiotin-tagged ATP probe AX9989 followed by trypsinization by LC/MS analysis
[3] = molecular target: T1, Scaffold protein ILK (Homo sapiens) (UniProt Q13418); experiment: Inhibition of ILK in human PC3 cell lysates at 10 uM using desthiobiotin-tagged ATP probe AX9989 followed by trypsinization by LC/MS analysis
T1 sequence (whole entry): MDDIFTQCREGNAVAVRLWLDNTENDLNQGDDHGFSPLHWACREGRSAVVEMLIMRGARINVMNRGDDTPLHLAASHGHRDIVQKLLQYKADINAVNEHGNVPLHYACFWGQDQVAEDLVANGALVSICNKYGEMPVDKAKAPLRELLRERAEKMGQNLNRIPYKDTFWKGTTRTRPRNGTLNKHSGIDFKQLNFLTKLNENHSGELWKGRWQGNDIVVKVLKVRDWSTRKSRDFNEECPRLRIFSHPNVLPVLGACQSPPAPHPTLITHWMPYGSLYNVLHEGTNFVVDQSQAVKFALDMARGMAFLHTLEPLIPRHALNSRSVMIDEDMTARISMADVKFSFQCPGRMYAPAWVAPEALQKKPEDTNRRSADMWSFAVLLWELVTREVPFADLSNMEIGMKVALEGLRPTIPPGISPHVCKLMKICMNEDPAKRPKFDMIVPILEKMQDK

[4] = molecular target: Focal adhesion kinase 1 (Homo sapiens) (UniProt Q05397); experiment: Inhibition of FAK in human PC3 cell lysates at 10 uM using desthiobiotin-tagged ATP probe AX9989 followed by trypsinization by LC/MS analysis
[5] = molecular target: SRSF protein kinase 1 (Homo sapiens) (UniProt Q96SB4); experiment: Inhibition of SRPK1 in human PC3 cell lysates at 10 uM using desthiobiotin-tagged ATP probe AX9989 followed by trypsinization by LC/MS analysis
[6] = molecular target: Serine/threonine-protein kinase 16 (Homo sapiens) (UniProt O75716); experiment: Inhibition of MPSK1 in human PC3 cell lysates at 10 uM using desthiobiotin-tagged ATP probe AX9989 followed by trypsinization by LC/MS analysis
[7] = molecular target: Cyclin-dependent kinase 5 (Homo sapiens) (UniProt Q00535); experiment: Inhibition of CDK5 in human PC3 cell lysates at 10 uM using desthiobiotin-tagged ATP probe AX9989 followed by trypsinization by LC/MS analysis
Chain of Cyclin-dependent kinase 5 (Homo sapiens) (Q00535 whole entry, looked up): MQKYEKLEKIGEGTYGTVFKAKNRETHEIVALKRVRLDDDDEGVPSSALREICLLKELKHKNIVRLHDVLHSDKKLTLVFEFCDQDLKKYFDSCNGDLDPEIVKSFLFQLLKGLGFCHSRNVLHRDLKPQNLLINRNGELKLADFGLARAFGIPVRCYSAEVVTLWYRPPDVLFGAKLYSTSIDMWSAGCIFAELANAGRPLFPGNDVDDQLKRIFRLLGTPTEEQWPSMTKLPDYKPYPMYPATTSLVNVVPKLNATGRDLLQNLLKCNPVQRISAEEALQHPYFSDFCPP

[8] = molecular target: Casein kinase II subunit alpha' (Homo sapiens) (UniProt P19784); experiment: Inhibition of CK2alpha2 in human PC3 cell lysates at 10 uM using desthiobiotin-tagged ATP probe AX9989 followed by trypsinization by LC/MS analysis
[9] = molecular target: Dual specificity mitogen-activated protein kinase kinase 2 (Homo sapiens) (UniProt P36507); experiment: Inhibition of MAP2K2 in human PC3 cell lysates at 10 uM using desthiobiotin-tagged ATP probe AX9989 followed by trypsinization by LC/MS analysis
[10] = molecular target: STE20-like serine/threonine-protein kinase (Homo sapiens) (UniProt Q9H2G2); experiment: Inhibition of SLK in human PC3 cell lysates at 10 uM using desthiobiotin-tagged ATP probe AX9989 followed by trypsinization by LC/MS analysis
Chain of STE20-like serine/threonine-protein kinase (Homo sapiens) (Q9H2G2 whole entry, looked up): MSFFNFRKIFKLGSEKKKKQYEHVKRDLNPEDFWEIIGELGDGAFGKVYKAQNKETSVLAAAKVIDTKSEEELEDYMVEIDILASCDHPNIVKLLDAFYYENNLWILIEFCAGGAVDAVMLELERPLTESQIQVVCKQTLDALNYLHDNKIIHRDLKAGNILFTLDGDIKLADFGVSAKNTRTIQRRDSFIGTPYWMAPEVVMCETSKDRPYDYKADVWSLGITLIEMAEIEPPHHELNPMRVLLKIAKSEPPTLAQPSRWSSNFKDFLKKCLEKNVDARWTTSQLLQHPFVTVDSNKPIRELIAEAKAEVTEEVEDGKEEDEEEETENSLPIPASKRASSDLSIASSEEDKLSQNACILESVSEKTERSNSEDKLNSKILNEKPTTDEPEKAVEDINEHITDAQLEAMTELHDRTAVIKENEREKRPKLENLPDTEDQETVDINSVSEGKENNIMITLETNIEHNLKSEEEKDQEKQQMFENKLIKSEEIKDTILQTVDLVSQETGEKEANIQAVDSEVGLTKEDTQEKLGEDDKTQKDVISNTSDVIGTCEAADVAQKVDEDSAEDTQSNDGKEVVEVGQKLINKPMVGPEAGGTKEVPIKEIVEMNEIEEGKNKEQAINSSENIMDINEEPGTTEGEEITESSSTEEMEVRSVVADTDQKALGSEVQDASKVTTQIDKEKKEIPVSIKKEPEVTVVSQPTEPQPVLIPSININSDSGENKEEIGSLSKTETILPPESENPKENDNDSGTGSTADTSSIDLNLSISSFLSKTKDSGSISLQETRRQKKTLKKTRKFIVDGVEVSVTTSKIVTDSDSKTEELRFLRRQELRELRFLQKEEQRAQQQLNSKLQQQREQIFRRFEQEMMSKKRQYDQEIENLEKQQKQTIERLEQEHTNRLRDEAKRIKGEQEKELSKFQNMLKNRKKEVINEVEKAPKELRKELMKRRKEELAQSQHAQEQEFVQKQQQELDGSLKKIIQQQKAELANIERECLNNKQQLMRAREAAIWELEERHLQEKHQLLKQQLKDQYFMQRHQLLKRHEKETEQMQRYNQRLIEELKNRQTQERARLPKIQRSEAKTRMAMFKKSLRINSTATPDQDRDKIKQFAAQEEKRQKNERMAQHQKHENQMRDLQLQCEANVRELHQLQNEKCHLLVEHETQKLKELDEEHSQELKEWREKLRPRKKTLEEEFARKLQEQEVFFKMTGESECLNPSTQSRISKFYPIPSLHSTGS

[11] = molecular target: Serine/threonine-protein kinase MRCK beta (Homo sapiens) (UniProt Q9Y5S2); experiment: Inhibition of MRCKbeta in human PC3 cell lysates at 10 uM using desthiobiotin-tagged ATP probe AX9989 followed by trypsinization by LC/MS analysis
Chain of Serine/threonine-protein kinase MRCK beta (Homo sapiens) (Q9Y5S2 whole entry): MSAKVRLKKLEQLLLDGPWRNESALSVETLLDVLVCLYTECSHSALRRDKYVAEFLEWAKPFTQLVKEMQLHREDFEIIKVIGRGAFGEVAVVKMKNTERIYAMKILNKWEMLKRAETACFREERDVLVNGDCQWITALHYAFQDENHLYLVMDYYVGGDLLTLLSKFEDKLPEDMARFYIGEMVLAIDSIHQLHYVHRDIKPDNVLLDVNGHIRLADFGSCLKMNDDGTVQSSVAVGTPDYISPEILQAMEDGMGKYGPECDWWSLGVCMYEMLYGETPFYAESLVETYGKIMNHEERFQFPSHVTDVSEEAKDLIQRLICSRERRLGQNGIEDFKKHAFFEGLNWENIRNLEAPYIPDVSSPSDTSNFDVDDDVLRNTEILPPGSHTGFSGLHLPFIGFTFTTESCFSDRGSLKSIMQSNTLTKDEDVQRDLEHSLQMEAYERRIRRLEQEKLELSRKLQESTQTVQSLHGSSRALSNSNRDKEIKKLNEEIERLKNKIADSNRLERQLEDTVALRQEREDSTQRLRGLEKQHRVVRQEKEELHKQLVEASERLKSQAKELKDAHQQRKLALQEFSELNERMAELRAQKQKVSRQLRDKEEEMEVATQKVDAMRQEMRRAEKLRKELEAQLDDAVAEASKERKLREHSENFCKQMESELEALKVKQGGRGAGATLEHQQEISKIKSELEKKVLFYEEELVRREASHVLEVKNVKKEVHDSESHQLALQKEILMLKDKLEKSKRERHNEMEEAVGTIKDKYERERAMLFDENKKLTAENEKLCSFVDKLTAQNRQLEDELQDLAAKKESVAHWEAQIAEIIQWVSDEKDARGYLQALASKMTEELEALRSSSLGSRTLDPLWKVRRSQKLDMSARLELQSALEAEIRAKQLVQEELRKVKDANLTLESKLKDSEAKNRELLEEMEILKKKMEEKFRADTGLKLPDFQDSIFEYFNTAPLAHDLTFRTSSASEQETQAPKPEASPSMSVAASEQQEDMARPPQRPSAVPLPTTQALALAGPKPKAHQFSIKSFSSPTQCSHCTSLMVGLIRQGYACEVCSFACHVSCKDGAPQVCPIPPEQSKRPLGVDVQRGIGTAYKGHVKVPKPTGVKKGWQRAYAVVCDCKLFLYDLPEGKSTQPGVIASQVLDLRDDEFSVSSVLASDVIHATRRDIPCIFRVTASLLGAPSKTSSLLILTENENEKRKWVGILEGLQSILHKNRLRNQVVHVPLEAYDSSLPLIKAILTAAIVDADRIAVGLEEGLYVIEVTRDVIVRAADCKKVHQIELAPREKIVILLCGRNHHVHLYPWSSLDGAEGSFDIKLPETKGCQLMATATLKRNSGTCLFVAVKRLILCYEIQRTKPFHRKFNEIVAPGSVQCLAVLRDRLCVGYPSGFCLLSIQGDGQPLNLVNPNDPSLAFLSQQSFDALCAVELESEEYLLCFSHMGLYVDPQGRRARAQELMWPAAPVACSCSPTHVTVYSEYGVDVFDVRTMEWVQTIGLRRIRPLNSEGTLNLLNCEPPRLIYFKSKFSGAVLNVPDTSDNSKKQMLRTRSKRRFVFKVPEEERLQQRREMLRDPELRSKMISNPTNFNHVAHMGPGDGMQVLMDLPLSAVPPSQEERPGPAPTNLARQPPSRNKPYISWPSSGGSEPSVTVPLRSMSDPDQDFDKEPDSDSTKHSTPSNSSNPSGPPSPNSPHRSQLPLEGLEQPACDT

[12] = molecular target: Serine/threonine-protein kinase tousled-like 2 (Homo sapiens) (UniProt Q86UE8); experiment: Inhibition of TLK2 in human PC3 cell lysates at 10 uM using desthiobiotin-tagged ATP probe AX9989 followed by trypsinization by LC/MS analysis
Chain of Serine/threonine-protein kinase tousled-like 2 (Homo sapiens) (Q86UE8 whole entry, looked up): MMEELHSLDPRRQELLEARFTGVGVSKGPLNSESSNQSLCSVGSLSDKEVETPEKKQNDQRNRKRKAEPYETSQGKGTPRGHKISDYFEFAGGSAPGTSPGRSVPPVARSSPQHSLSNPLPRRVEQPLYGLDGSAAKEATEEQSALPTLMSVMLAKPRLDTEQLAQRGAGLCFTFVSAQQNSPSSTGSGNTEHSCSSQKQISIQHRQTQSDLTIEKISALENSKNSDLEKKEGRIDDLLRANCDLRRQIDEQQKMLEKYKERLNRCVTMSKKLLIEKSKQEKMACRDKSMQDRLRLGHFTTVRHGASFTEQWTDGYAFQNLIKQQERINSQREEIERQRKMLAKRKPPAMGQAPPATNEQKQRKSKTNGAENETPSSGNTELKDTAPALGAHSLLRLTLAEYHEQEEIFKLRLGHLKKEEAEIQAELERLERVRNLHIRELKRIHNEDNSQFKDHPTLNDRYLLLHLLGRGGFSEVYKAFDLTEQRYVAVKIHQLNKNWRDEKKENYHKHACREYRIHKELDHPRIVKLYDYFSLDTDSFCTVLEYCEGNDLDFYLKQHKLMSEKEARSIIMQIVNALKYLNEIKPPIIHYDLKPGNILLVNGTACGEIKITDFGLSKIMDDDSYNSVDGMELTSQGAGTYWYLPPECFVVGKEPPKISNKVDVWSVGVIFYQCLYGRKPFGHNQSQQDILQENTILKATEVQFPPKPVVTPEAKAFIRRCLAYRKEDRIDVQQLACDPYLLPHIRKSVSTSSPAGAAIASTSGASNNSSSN

[13] = molecular target: Interferon-induced, double-stranded RNA-activated protein kinase (Homo sapiens) (UniProt P19525); experiment: Inhibition of PKR in human PC3 cell lysates at 10 uM using desthiobiotin-tagged ATP probe AX9989 followed by trypsinization by LC/MS analysis
Chain of Interferon-induced, double-stranded RNA-activated protein kinase (Homo sapiens) (P19525 whole entry): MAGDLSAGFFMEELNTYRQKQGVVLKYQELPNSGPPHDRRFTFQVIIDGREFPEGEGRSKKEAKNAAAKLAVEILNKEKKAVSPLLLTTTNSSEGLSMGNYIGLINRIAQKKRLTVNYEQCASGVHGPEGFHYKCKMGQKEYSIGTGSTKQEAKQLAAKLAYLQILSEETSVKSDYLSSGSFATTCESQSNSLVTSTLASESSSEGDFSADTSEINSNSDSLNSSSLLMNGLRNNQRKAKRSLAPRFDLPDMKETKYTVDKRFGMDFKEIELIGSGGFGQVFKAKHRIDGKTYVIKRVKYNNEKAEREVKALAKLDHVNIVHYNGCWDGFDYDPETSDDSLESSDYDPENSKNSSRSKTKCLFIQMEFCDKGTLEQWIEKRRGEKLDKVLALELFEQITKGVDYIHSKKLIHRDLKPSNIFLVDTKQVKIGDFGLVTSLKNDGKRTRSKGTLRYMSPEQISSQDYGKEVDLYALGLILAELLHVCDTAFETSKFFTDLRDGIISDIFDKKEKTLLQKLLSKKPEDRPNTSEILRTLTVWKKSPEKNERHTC

[14] = molecular target: Glycogen synthase kinase-3 beta (Homo sapiens) (UniProt P49841); experiment: Inhibition of GSK3beta in human PC3 cell lysates at 10 uM using desthiobiotin-tagged ATP probe AX9989 followed by trypsinization by LC/MS analysis
[15] = molecular target: Cyclin-dependent kinase 9 (Homo sapiens) (UniProt P50750); experiment: Inhibition of CDK9 in human PC3 cell lysates at 10 uM using desthiobiotin-tagged ATP probe AX9989 followed by trypsinization by LC/MS analysis
[16] = Inhibition of PITSLRE in human PC3 cell lysates at 10 uM using desthiobiotin-tagged ATP probe AX9989 followed by trypsinization by LC/MS analysis; type: cell-free
[17] = molecular target: Serine/threonine-protein kinase WNK2 (Homo sapiens) (UniProt Q9Y3S1); experiment: Inhibition of Wnk2 in human PC3 cell lysates at 10 uM using desthiobiotin-tagged ATP probe AX9989 followed by trypsinization by LC/MS analysis
[18] = molecular target: Serine/threonine-protein kinase 38-like (Homo sapiens) (UniProt Q9Y2H1); experiment: Inhibition of NDR2 in human PC3 cell lysates at 10 uM using desthiobiotin-tagged ATP probe AX9989 followed by trypsinization by LC/MS analysis
[19] = molecular target: CaM kinase II (Homo sapiens) (UniProt Q13557+Q13555+Q13554+Q9UQM7); experiment: Inhibition of CaMK2alpha/CaMK2beta/CaMK2delta/CaMK2gamma in human PC3 cell lysates at 10 uM using desthiobiotin-tagged ATP probe AX9989 followed by trypsinization by LC/MS analysis; type: protein assay

Chain of Tyrosine-protein kinase Yes (Homo sapiens) (P07947 2-543 limits assumed): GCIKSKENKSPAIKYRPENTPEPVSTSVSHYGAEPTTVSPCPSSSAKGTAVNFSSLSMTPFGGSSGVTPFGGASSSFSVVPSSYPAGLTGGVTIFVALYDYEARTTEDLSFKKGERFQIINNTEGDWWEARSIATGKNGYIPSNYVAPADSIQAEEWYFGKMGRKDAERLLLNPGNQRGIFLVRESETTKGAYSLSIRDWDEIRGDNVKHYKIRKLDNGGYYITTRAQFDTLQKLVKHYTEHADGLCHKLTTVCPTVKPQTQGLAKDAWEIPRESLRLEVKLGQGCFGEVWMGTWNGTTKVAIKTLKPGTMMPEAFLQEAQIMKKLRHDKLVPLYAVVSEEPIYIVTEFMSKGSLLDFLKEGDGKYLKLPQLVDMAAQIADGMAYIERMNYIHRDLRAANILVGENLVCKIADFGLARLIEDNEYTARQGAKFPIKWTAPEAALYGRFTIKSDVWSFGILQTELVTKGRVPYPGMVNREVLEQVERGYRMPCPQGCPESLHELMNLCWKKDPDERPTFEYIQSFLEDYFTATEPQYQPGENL

inhibition [1] | inhibition [2] | inhibition [3] | inhibition [4] | inhibition [5] | inhibition [6] | inhibition [7] | inhibition [8] | inhibition [9] | inhibition [10] | inhibition [11] | inhibition [12] | inhibition [13] | inhibition [14] | inhibition [15] | inhibition [17] | inhibition [18] | inhibition [19] | Compound | inhibition [16]
< 35% | < 35% | < 35% | < 35% | < 35% | < 35% | < 35% | < 35% | < 35% | < 35% | < 35% | < 35% | < 35% | < 35% | < 35% | < 35% | < 35% | < 35% | O=C(NC1(c2ccc(F)cc2)CC1)c1ccc2nc(N[C@H]3CC[C@H](O)CC3)c3nccn3c2c1 | < 35%
< 35% | < 35% | < 35% | < 35% | < 35% | 48.9% | < 35% | 40.6% | < 35% | < 35% | < 35% | < 35% | < 35% | 98.6% | 97.9% | < 35% | < 35% | < 35% | O=C(O)c1ccc2nc(N[C@H]3CC[C@H](O)CC3)c3nccn3c2c1 | 99.3%
